Assays:
PR^S17 [1] = conditions: PR^S17, flap twisting by G48V implicated; cited from earlier work
[2] = tested on: PR with 22 mutations in addition to inactivating D25N mutation; conditions: PR with 22 mutations in addition to D25N; cited from earlier work
PR with M46L = conditions: cited from earlier work
PR with G48V = conditions: cited from earlier work
PR with I54V = conditions: cited from earlier work
[3] = tested on: PR bearing the single V82A mutation; conditions: kinetic studies; cited from earlier work
[4] = biological target: HIV-1 protease variant PR^S17 (HIV-1); experiment: enzyme inhibition kinetics
PR^S17 [5] = conditions: PR^S17, predicted from genotype–phenotype data; cited from earlier work
HIV-1 protease with G48V [6] = conditions: flap mutation G48V; cited from earlier work
HIV-1 protease with G48V [7] = conditions: thermodynamic integration and MM-PBSA; cited from earlier work
[8] = biological target: PR^S17 (HIV-1 protease variant with 17 mutations); experiment: Kinetic inhibition of PR^S17; assay type: biochemical; conditions: PR^S17 compared to PR
[9] = biological target: PR (wild-type HIV-1 protease); conditions: read-out: Inhibition constant (Ki), determined previously; cited from earlier work
PR^V82A = conditions: read-out: Inhibition constant (Ki), determined previously; cited from earlier work

Compound: CC(C)CN(C[C@@H](O)[C@H](Cc1ccccc1)NC(=O)O[C@H]1CO[C@H]2OCC[C@H]21)S(=O)(=O)c1ccc(N)cc1 [DRV, darunavir]
- cross-resistance of PR^S17 (PR^S17 [1]): cross-resistance
- resistance (fold) [2]: > 175 fold
- inhibition constant (Ki) relative to wild-type PR (PR with M46L): worse inhibition constants
- inhibition constant (Ki) relative to wild-type PR (PR with G48V): worse inhibition constants
- inhibition constant (Ki) relative to wild-type PR (PR with I54V): worse inhibition constants
- affinity of PR with V82A for inhibitor [3]: significantly worse affinity

Compound: substrate analogue p2-NC (Ace-T-I-Nle-r-Nle-Q-R) (peptide)
- Ki [4]: 514 nM

Compound: CC(C)(C)NC(=O)[C@@H]1C[C@@H]2CCCC[C@@H]2CN1C[C@@H](O)[C@H](Cc1ccccc1)NC(=O)[C@H](CC(N)=O)NC(=O)c1ccc2ccccc2n1 [saquinavir]
- predicted resistance (PR^S17 [5]): high-level resistance
- inhibition constant (Ki) relative to wild-type PR (PR with M46L): worse inhibition constants
- inhibition constant (Ki) relative to wild-type PR (PR with G48V): worse inhibition constants
- inhibition constant (Ki) relative to wild-type PR (PR with I54V): worse inhibition constants
- resistance conferred by G48V (HIV-1 protease with G48V [6]): high level of resistance

Compound: COC(=O)N[C@H](C(=O)N[C@@H](Cc1ccccc1)[C@@H](O)CN(Cc1ccc(-c2ccccn2)cc1)NC(=O)[C@@H](NC(=O)OC)C(C)(C)C)C(C)(C)C [atazanavir]
- predicted resistance (PR^S17 [5]): high-level resistance

Compound: CC(C)CN(C[C@@H](O)[C@H](Cc1ccccc1)NC(=O)O[C@H]1CCOC1)S(=O)(=O)c1ccc(N)cc1 [APV, amprenavir]
- effect of G48V on van der Waals interactions (HIV-1 protease with G48V [7]): strengthens van der Waals interactions

Compound: Cc1cccc(C)c1OCC(=O)N[C@@H](Cc1ccccc1)[C@@H](O)C[C@H](Cc1ccccc1)NC(=O)[C@H](C(C)C)N1CCCNC1=O [lopinavir]
- predicted resistance (PR^S17 [5]): high-level resistance

Compound: CC(C)c1nc(CN(C)C(=O)N[C@H](C(=O)N[C@@H](Cc2ccccc2)C[C@H](O)[C@H](Cc2ccccc2)NC(=O)OCc2cncs2)C(C)C)cs1 [ritonavir]
- predicted resistance (PR^S17 [5]): high-level resistance
- affinity of PR with V82A for inhibitor [3]: significantly worse affinity

Compound: substrate analogue CA-p2 (R-V-L-r-F-E-A-Nle) (peptide)
- Ki [4]: 22 nM

Compound: Ace-T-I-Nle-r-Nle-Q-R [p2-NC]
- Ki relative to the wild-type PR (fold better inhibition) [8]: 4.2
- Ki [9]: 2170 nM
- Ki (PR^V82A): 530 nM

Compound: CC(C)(C)NC(=O)[C@@H]1CN(Cc2cccnc2)CCN1C[C@@H](O)C[C@@H](Cc1ccccc1)C(=O)N[C@H]1c2ccccc2C[C@H]1O [indinavir]
- predicted resistance (PR^S17 [5]): high-level resistance
- affinity of PR with V82A for inhibitor [3]: significantly worse affinity

Compound: Cc1c(O)cccc1C(=O)N[C@@H](CSc1ccccc1)[C@H](O)CN1C[C@H]2CCCC[C@H]2C[C@H]1C(=O)NC(C)(C)C [nelfinavir]
- predicted resistance (PR^S17 [5]): high-level resistance
- affinity of PR with V82A for inhibitor [3]: significantly worse affinity

Compound: R-V-L-r-F-E-A-Nle [CA-p2]
- Ki [9]: 75 nM
- Ki (PR^V82A): 24 nM
